The values that follow come from patent US9814720B2, “Compositions and methods of inhibiting IL-17 expression of neutrophils” (priority 2014, dated 2017).

The structures appear in SMILES notation.

Type in all cases: cell-based, C57BL/6 mice
In one test the test system is p-STAT3. As to the kind of experiment: STAT3 phosphorylation in IL-6/23-stimulated murine bone marrow neutrophils (flow cytometry). Particulars: inhibitor 20 μM, 1 h IL-6+IL-23, FIG. 4C. An excerpt: (§1) Total bone marrow-derived cells were isolated from mouse femurs and tibias by flushing with RPMI and an 18-gauge needle. Erythrocytes were lysed with 1× lysis buffer (eBioscience), and bone marrow cells were separated on a Percoll (Fisher) gradient by density centrifugation (52%, 69%, and 78%). Cells at the 69-78% interface were harvested, and neutrophil purity (>98%) confirmed by flow cytometry and Wright-Giemsa staining. Murine or human neutrophils were suspended at a density of 10^6 cells/ml and incubated with […] of recombinant mouse or human IL-6 and 2 μg/ml IL-23 in RPMI, and the cells were maintained for 1-3 h at 37° C. in 5% CO2. Various inhibitors were used for assessing STAT3 activation. […] For the determination of RORγt-dependent signaling, SR1001 (20 μM; Sigma) was used, which inhibits RORγt binding to the IL-17 promoter site. All inhibitors were added to neutrophils 2 h prior to recombinant IL-6 and IL-23 stimulation. Corneas were dissected and incubated for 1 h at 37° C. in collaganese (80 U/ml) (C0130; Sigma-Aldrich), and washed in FACS buffer (PBS+1% FBS+0.5% Sodium azide). Ten corneas were pooled and analyzed by intracellular flow cytometry. Conversely, bone marrow cells or neutrophils were collected as described above and washed in FACS buffer. […] Cells were analyzed using a C6 Accuri flow cytometer (BD). […]
A general note: A flow cytometer gives signals particle by particle.

The next test relates to RORγt. As to the kind of experiment: RORγt nuclear translocation in IL-6/23-stimulated murine neutrophils (confocal imaging). Particulars: IL-6+IL-23 stimulated, inhibitor 20 μM, FIG. 4D.
From the text: as §1

In test [1] the test system is bone marrow-derived murine neutrophils. As to the kind of experiment: ROS production (CFDA) by murine bone marrow neutrophils incubated with Aspergillus hyphae. The note with it: IL-6/23-stimulated, inhibitor 20 μM, FIG. 6C. Here is the method:
Murine and human neutrophils were incubated with p-STAT3 (20 μM Stattic or 20 μM INC424) or RORγt inhibitors (20 μM SR1001) for 2 h. Then the cells were stimulated with […] of rIL-6 and 2 μg/ml of rIL-23 for 3 h, washed, and 2×10^5 bone marrow-derived murine neutrophils or 10^5 human peripheral blood neutrophils, with or without recombinant IL-17A, were added to each well with growing hyphae. RPMI media was used as positive control (unimpaired growth), and PBS was used as a negative control (no growth (data not shown)). After 16 h the wells were washed with PBS and the dsRed fungal mass was quantified in a 96-well fluorometer at 550/600 nm excitation/emission filter (Synergy HT, Biotek).
In vitro ROS production measured by CFDA was previously described. Briefly, 100 μg/100 μl of A. fumigatus hyphal extract (AspHE) were incubated with 2×10^5 murine or human neutrophils. Neutrophils were treated for 1 h with 1 μM Carboxyfluorescein diacetate (H2CFDA (Sigma)), which will fluoresce following ROS oxidation. Neutrophils were collected and analyzed by flow cytometry. H2CFDA pulsed neutrophils that had not been incubated with AspHE were used to set the ROS histogram gate. The average mean intensity was calculated by Accuri flow software and graphed in Prism.

Regarding `O=[N+]([O-])c1ccc2c(c1)S(=O)(=O)C=C2` [Stattic], in the test with p-STAT3, the “p-STAT3 in IL-6/23 stimulated neutrophils” value is reported as “completely inhibited”. Besides, the “RORγt localisation (cytoplasm vs nucleus)” value in the test on RORγt is “only detected in the cytoplasm”. The ROS production result is “ROS production was increased” in test [1] (plus rIL-17A) and “not increased above the level produced by naïve neutrophils” in test [1] (without rIL-17A).
